# Measured values from publication PMC11641755, “Features of Highly Homologous T-Cell Receptor Repertoire in the Immune Response to Mutations in Immunogenic Epitopes” (International Journal of Molecular Sciences, 2024).
# Columns and labels:
# [1] = test system: TCR NYN-1 (Jurkat E6-1 TPR cells); type: cell-based, human
# TCR^NYN-I = conditions: ref 20 (Deng et al.); cited from earlier work
# TCR^NYN-II = conditions: ref 20 (Deng et al.); cited from earlier work
# [2] = test system: TCR NYN-4 (Jurkat E6-1 TPR cells); assay: Jurkat E6-1 TPR NFAT-eGFP reporter activation, transgenic TCR NYN-4, peptide-loaded K562-A*24:02; type: cell-based, human
# [3] = test system: NYN peptide-specific TCRs (NYN-1 to NYN-4 Jurkat E6-1 TPR cell lines); type: cell-based, human
# [4] = test system: TCR NYN-2 (Jurkat E6-1 TPR cells); type: cell-based, human
# [5] = test system: TCR NYN-3 (Jurkat E6-1 TPR cells); type: cell-based, human
sequence,measurement,setting,value
NYKYLYRLF [N450K],effect of the mutation on response / affinity of NYN-1 (in words),[1],remained preserved
same,recognition / response of TCR^NYN-I (in words),TCR^NYN-I,remained preserved
same,recognition / response of TCR^NYN-II (in words),TCR^NYN-II,remained preserved
same,reduction in the recognition compared to wild-type NYN,"[2]; TCR NYN-4, from EC50 values",up to 400 fold
NYNYMYRLF [L452M],effect of the mutation on the T-cell response / recognition (in words),[3],did not affect the T-cell response
NYDYLYRLF [N450D],effect of the mutation on the T-cell response / recognition (in words),[3],did not affect the T-cell response
same,effect of the mutation on response / affinity of NYN-2 (in words),[4],increased the affinity
same,effect of the mutation on response / affinity of NYN-3 (in words),[5],increased the affinity
NYNYLYRLL [F456L],effect of the mutation on the T-cell response / recognition (in words),[3],did not affect the T-cell response
NYNYLYRFF [L455F],effect of the mutation on the T-cell response / recognition (in words),[3],did not affect the T-cell response
same,reduction in the recognition compared to wild-type NYN,"[4]; TCR NYN-2, from EC50 values",23 fold
VYFLQSINF,recognition by all NYN-specific TCRs (cross-reactivity),[3]; K562 loaded with 0.8 μM of each epitope,recognized
same,GFP expression compared to NYN,"[4]; NYN-2 cell line, K562 loaded with 0.8 μM peptide",the same level of GFP expression as NYN
same,GFP expression compared to NYN,"[5]; NYN-3 cell line, K562 loaded with 0.8 μM peptide",1.5 times lower
same,GFP expression compared to NYN,"[1]; NYN-1 cell line, K562 loaded with 0.8 μM peptide",the same level of GFP expression as NYN
same,GFP expression compared to NYN,"[2]; NYN-4 cell line, K562 loaded with 0.8 μM peptide",1.5 times lower
